Among the test systems are UACC-257 melanoma; K-562 leukemia; UO-31 renal; ACHN renal; RPMI-8226 leukemia; HOP-62 NSCLC; SN12C renal; RXF 393 renal; OVCAR-3 ovarian; PC-3 prostate.
Holding throughout (experiment): growth of human tumour cells (NCI), 48 h

Molecules are shown by their SMILES.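 Method: 48-hour compound exposure of cells in 96-well plates, five concentrations, linear interpolation of endpoints. Abbreviation: GI50, concentration required for 50% inhibition of growth. TGI marks complete inhibition of growth.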

With `COC(=O)CCC(=O)Nc1cc(C)ccc1C`, the TGI in the assay on UACC-257 melanoma, in the assay on K-562 leukemia, in the assay on UO-31 renal, with ACHN renal, in the assay on RPMI-8226 leukemia and with HOP-62 NSCLC was more than 100 µM in each case. For the same molecule, the TGI in the assay with SN12C renal, in the assay with RXF 393 renal and in the assay on OVCAR-3 ovarian was more than 100 µM throughout.

As to `O=C1c2ccccc2-c2c1c1ccc([N+](=O)[O-])cc1c(=O)n2CCN1CCOCC1`, the GI50 is more than 100 µM in the assay on PC-3 prostate; more than 100 µM in the assay with K-562 leukemia; more than 100 µM in the assay on UO-31 renal; 33.4 µM with ACHN renal; 35.7 µM in the assay on RPMI-8226 leukemia; 52 µM in the assay with HOP-62 NSCLC. Besides, the figures for the GI50 in the assay with SN12C renal and in the assay with OVCAR-3 ovarian were 59.3 µM and more than 100 µM, respectively. Moreover, the TGI in the assay with PC-3 prostate, in the assay on K-562 leukemia, in the assay with UO-31 renal, in the assay on ACHN renal, in the assay on RPMI-8226 leukemia and in the assay on HOP-62 NSCLC was more than 100 µM throughout. The TGI in the assay on SN12C renal and in the assay with OVCAR-3 ovarian was more than 100 µM in each case.

Regarding `CN(C)C(=S)/N=C(\N)N(C)C`, the TGI with UACC-257 melanoma, with K-562 leukemia, with UO-31 renal, in the assay with ACHN renal, in the assay on RPMI-8226 leukemia and in the assay on HOP-62 NSCLC was more than 100 µM throughout. Also, the TGI with SN12C renal and with RXF 393 renal was more than 100 µM each time.

With `COc1ccccc1N1CCN(CC(O)Cn2c(=O)c3c(OC)nc(C)cc3c(=O)n2-c2ccccc2)CC1` (stereo not drawn), the GI50 was 43 µM in the assay with PC-3 prostate; more than 100 µM in the assay on K-562 leukemia; more than 100 µM in the assay with UO-31 renal; 37.9 µM in the assay on ACHN renal; 39.6 µM with RPMI-8226 leukemia; 43.7 µM in the assay on HOP-62 NSCLC. Also, the GI50 in the assay on SN12C renal and with OVCAR-3 ovarian was more than 100 µM throughout. Moreover, the TGI in the assay on PC-3 prostate, in the assay with K-562 leukemia, in the assay on UO-31 renal, in the assay with ACHN renal, in the assay with RPMI-8226 leukemia and in the assay on HOP-62 NSCLC was more than 100 µM each time. For the same molecule, the TGI in the assay with SN12C renal and with OVCAR-3 ovarian was more than 100 µM in each case.

For the molecule `CC(C)=CC1(C)/C(=N\O)C(C)(CC(C)C)C(=O)N1O` (stereo not drawn), the TGI in the assay on UACC-257 melanoma, with K-562 leukemia, in the assay on UO-31 renal, with ACHN renal, in the assay with RPMI-8226 leukemia and in the assay with HOP-62 NSCLC was more than 100 µM throughout. The TGI in the assay on SN12C renal, with RXF 393 renal and with OVCAR-3 ovarian was more than 100 µM each time.

With `OCC(O)C(OC1OC(CO)C(O)C(O)C1O)c1nn(-c2ccc(Cl)cc2)c2nc3cc(Cl)c(Cl)cc3nc12` (stereo not drawn), the TGI in the assay with UACC-257 melanoma, with K-562 leukemia, in the assay with UO-31 renal, with ACHN renal, with RPMI-8226 leukemia and in the assay with HOP-62 NSCLC was more than 100 µM each time. The TGI in the assay on SN12C renal, with RXF 393 renal and with OVCAR-3 ovarian was more than 100 µM each time.

Take `C=CCC(O)c1cc(OC)ccc1OC` (stereo not drawn): the TGI in the assay with UACC-257 melanoma, in the assay on K-562 leukemia, in the assay with UO-31 renal, with ACHN renal, in the assay with RPMI-8226 leukemia and in the assay on HOP-62 NSCLC was more than 100 µM throughout. Moreover, the TGI in the assay on SN12C renal, in the assay on RXF 393 renal and in the assay on OVCAR-3 ovarian was more than 100 µM throughout.

In the case of `C#CCn1c2c(c3ccccc3c1=O)C(=O)c1ccccc1-2`, the TGI in the assay with PC-3 prostate was more than 100 µM; with UACC-257 melanoma it was more than 100 µM; in the assay on K-562 leukemia, more than 100 µM; in the assay with UO-31 renal, 13.9 µM; with RPMI-8226 leukemia, more than 100 µM; with HOP-62 NSCLC, 24.1 µM. Besides, the figures for the TGI in the assay on SN12C renal and with OVCAR-3 ovarian were 81.6 µM and 29.6 µM, respectively.

Regarding `Cc1c(-c2cc(-c3ccccc3)n[nH]c2=O)c2ccccc2n1C`, the TGI in the assay on UACC-257 melanoma, in the assay on K-562 leukemia, in the assay on UO-31 renal, with ACHN renal, in the assay on RPMI-8226 leukemia and with HOP-62 NSCLC was more than 100 µM throughout. For the same molecule, the TGI in the assay on SN12C renal, with RXF 393 renal and with OVCAR-3 ovarian was more than 100 µM throughout.

In the case of `Nc1ncnc2c1N=CN(Oc1ccccc1)N2`, the TGI with UACC-257 melanoma is more than 100 µM; with K-562 leukemia, more than 100 µM; in the assay on ACHN renal, more than 100 µM; with RPMI-8226 leukemia, more than 100 µM; in the assay on SN12C renal it was 43.7 µM; in the assay on RXF 393 renal, more than 100 µM. Besides, the TGI with OVCAR-3 ovarian is more than 100 µM.

`CNC(=O)NCCCCC(NC(=O)OCc1ccccc1)C(=O)OCc1ccccc1` (stereo not drawn): the TGI is 34.5 µM in the assay with UACC-257 melanoma; more than 100 µM in the assay on K-562 leukemia; 32.7 µM with UO-31 renal; 33.8 µM with ACHN renal; 51.4 µM with RPMI-8226 leukemia; 29.1 µM with HOP-62 NSCLC. The TGI was determined as 51.1 µM in the assay with SN12C renal, 33.9 µM with RXF 393 renal and 32.1 µM with OVCAR-3 ovarian.

For `CC1=C(C(=O)NCc2ccccc2)C(c2ccc(N(C)C)cc2)C(C(=O)NCc2ccccc2)=C(C)N1`, the TGI in the assay on UACC-257 melanoma, in the assay on K-562 leukemia, in the assay on UO-31 renal, in the assay on ACHN renal, in the assay on RPMI-8226 leukemia and in the assay on HOP-62 NSCLC was more than 100 µM throughout. Also, the TGI in the assay with SN12C renal was more than 100 µM; in the assay on RXF 393 renal it was 80.3 µM; in the assay with OVCAR-3 ovarian it was more than 100 µM.

(Values after PubChem BioAssay (NCI).)
